Test results as given in ChEMBL document CHEMBL1144640, “Novel pyrazole derivatives as potent inhibitors of type II topoisomerases. Part 1: synthesis and preliminary SAR analysis” (Bioorg Med Chem Lett, 2007).
≈ marks a conversion by molar mass, not a printed value.

What was measured:
Escherichia coli = experiment: Antibacterial activity against Escherichia coli KL16; type: functional
Streptococcus pneumoniae = experiment: Antibacterial activity against Streptococcus pneumonia ATCC 49619; type: functional
[1] = Inhibition of bacterial DNA gyrase; parameters: species or system Bacteria
Staphylococcus aureus = experiment: Antibacterial activity against Staphylococcus aureus ATCC 13709; type: functional
[2] = Inhibition of bacterial topoisomerase 4; parameters: species or system Bacteria

Row | SMILES | MIC (Escherichia coli) [µg/mL] | MIC (Streptococcus pneumoniae) [µg/mL] | IC50 [1] [µg/mL] | MIC (Staphylococcus aureus) [µg/mL] | IC50 [2] [µg/mL]
1 | COc1ccc2nccc(-n3cc4c(n3)CCN(Cc3ccc5c(c3)OCCO5)C4)c2c1 | > 128 | > 128 | > 8 | > 128 | 
2 | COc1ccc2nccc(-n3ncc4c3CCN(Cc3ccc5c(c3)OCCO5)C4)c2c1 | > 128 | > 128 | > 8 | > 128 | 
3 | COc1ccc2nccc(-n3ncc4c3CCC(NCc3ccc5c(c3)OCCO5)C4)c2c1 (stereo not given) | > 128 | 32 (≈ 72.3 µM) | > 8 | 16 (≈ 36.2 µM) | 
4 | COc1ccc2nccc(-n3cc4c(n3)CCC(NCc3ccc5c(c3)NC(=O)CS5)C4)c2c1 (stereo not given) | 2 (≈ 4.24 µM) | 0.5 (≈ 1.06 µM) | 0.25 (≈ 0.53 µM) | 0.25 (≈ 0.53 µM) | 0.03 (≈ 0.0636 µM)
5 | COc1ccc2nccc(-n3cc4c(n3)CCC(NC(=O)c3ccc5c(c3)NC(=O)CS5)C4)c2c1 (stereo not given) | 4 (≈ 8.24 µM) | 2 (≈ 4.12 µM) | 1 (≈ 2.06 µM) | 4 (≈ 8.24 µM) | 0.125 (≈ 0.257 µM)
6 | COc1ccc2nccc(-n3cc4c(n3)CCC(NCc3ccc5c(c3)NC(=O)CS5)C4)c2n1 (stereo not given) | 1 (≈ 2.12 µM) | 2 (≈ 4.23 µM) | 0.25 (≈ 0.529 µM) | 0.25 (≈ 0.529 µM) | 0.016 (≈ 0.0339 µM)
7 | COc1ccc2nccc(-n3cc4c(n3)CCC(NC(=O)c3ccc5c(c3)NC(=O)CS5)C4)c2n1 (stereo not given) | 128 (≈ 263 µM) | 4 (≈ 8.22 µM) | 0.06 (≈ 0.123 µM) | 0.125 (≈ 0.257 µM) | 0.25 (≈ 0.514 µM)
8 | COc1ccc2nccc(-n3cc4c(n3)CCN(C(=O)c3ccc5c(c3)NC(=O)CS5)CC4)c2n1 | 2 (≈ 4.11 µM) | 2 (≈ 4.11 µM) | 0.25 (≈ 0.514 µM) | 1 (≈ 2.06 µM) | 
9 | COc1ccc2nccc(-n3ncc4c3CCC(NCc3ccc5c(c3)NC(=O)CS5)C4)c2c1 (stereo not given) | > 128 | > 128 | 2 (≈ 4.24 µM) | > 128 | 
10 | COc1ccc2nccc(-n3cc4c(n3)CC(NC(=O)c3ccc5c(c3)NC(=O)CS5)CC4)c2c1 (stereo not given) | 8 (≈ 16.5 µM) | 4 (≈ 8.24 µM) | > 8 | 8 (≈ 16.5 µM) | 0.5 (≈ 1.03 µM)
11 | COc1ccc2nccc(-n3cc4c(n3)CCC(NCc3ccc5c(c3)OCCO5)C4)c2c1 (stereo not given) | 64 (≈ 145 µM) | 0.5 (≈ 1.13 µM) | 2 (≈ 4.52 µM) | 0.5 (≈ 1.13 µM) | 0.06 (≈ 0.136 µM)
